Tested on: CD8+ T cells
Experiment: Dose titration of CGS-21680 on T cell proliferation (CFSE)
Assay type: cell-based, human
Settings: CFSE-labeled CD8+ T cells, two donors
Experimental: FIG. 12A-E. Screen for Resistance to an Immunosuppressive Signal in Primary T Cells Using SLICE, Related to FIG. 6. Section A: a dose titration of adenosine receptor agonist CGS-21680 for the optimal effects on T cell proliferation inhibition identified 20 μM as sufficiently suppressive. Shown are representative CFSE profiles for varying concentrations of CGS-21680, as labeled at the top of each panel. Data is for CFSE-labeled CD8^+ T cells from two human donors. Section C: Comparison of the overlapping top 25 hits for the two screen conditions (CGS-21680 and vehicle). We noted that while many hits from the vehicle screen also boosted proliferation in the presence of the immunosuppressive adenosine agonist (trending along diagonal), ADORA2A and FAM105A sgRNAs were enriched selectively in the setting of the adenosine agonist. ADORA2A and FAM105A were the only hits in the top 0.1% by LFC in the CGS-21680 treated condition and also in the top 0.1% by LFC difference between the CGS-21680 and the vehicle GW screen conditions. Section D: Paralogs FAM105A and OTULIN (FAM105B) are 40% homologous and are encoded at neighboring sites on chromosome 5. […] A non-synonymous single nucleotide polymorphism (SNP) in FAM105A has been linked to allergic disease by genome wide association studies (Ferreira et al., 2017). […]

`CCNC(=O)[C@H]1O[C@@H](n2cnc3c(N)nc(NCCc4ccc(CCC(=O)O)cc4)nc32)[C@H](O)[C@@H]1O` [CGS-21680] was tested, and the “concentration sufficiently suppressive of T cell proliferation” value was 20 µM.

Source: patent US12473533B2, “Gene targets for T-cell-based immunotherapy” (The Regents of the University of California, priority 2018, dated 2025)
